# Measurements as given in US9994528B2, “Certain amino-pyridines and amino-triazines, compositions thereof, and methods for their use” (Cytokinetics, Inc., priority 2010, dated 2018).
# System: rabbit skeletal myofibrils (approximately 90% fast fibers)
# Assay: Activation of fast skeletal myofibrils (PUMA coupled-enzyme ATPase assay)
# Type: biochemical
# Conditions: AC1.4 = concentration at which the compound increased the enzymatic activity by 40%; myofibril suspension at calcium level pCa25; PM12 buffer pH 6.8
# Method: Preparation of fast skeletal myofibrils. Rabbit skeletal myofibrils were prepared based upon the method of Herrmann et al. (Biochem. 32(28):7255-7263(1993). Myofibrils were prepared from rabbit psoas muscle purchased from Pel-Freez Biologicals (Arkansas) within 2 days of ordering, stored on ice. Minced muscle was homogenized in 10 volumes of ice-cold “standard” buffer (50 mM Tris, pH 7.4, 0.1 M potassium acetate, 5 mM KCl, 2 mM DTT, 0.2 mM PMSF, 10 μM leupeptin, 5 μM pepstatin, and 0.5 mM sodium azide) containing 5 mM EDTA and 0.5% Triton X-100 using an Omni-Macro homogenizer. Myofibrils were recovered by low speed centrifugation (3000 rpm for 10 minutes) and washed 2 times in the Triton X-100 containing buffer to ensure removal of cellular membrane. Following the Triton washes, myofibrils were washed 3 times in “standard” buffer containing 2 mM magnesium acetate. A final wash in assay buffer (12 mM PIPES, pH 6.8, 60 mM KCl, 1 mM DTT) was performed and brought to 10% sucrose for flash freezing in liquid nitrogen and storage at −80° C.
# Activation of Fast Skeletal Myofibrils. Fast fiber activators were identified by measuring the enzymatic activity of muscle myofibril preparations using the proprietary PUMA™ (see, e.g., U.S. Pat. Nos. 6,410,254, 6,743,599, 7,202,051, and 7,378,254) assay system. Myofibril preparations consisted of rabbit skeletal muscle (approximately 90% fast fibers) that had been mechanically homogenized and washed with a detergent (triton X-100) to remove cellular membranes. This preparation retained all of the sarcomeric components in a native conformation and the enzymatic activity was still regulated by calcium. Compounds were tested using a myofibril suspension and a level of calcium sufficient to increase enzymatic activity of the myofibrils to 25% of their maximal rate (termed pCa25). Enzymatic activity was tracked via a pyruvate kinase and lactate dehydrogenase-coupled enzyme system. This assay regenerates myosin-produced ADP into ATP by oxidizing NADH, producing an absorbance change at 340 nm. The buffering system was 12 mM Pipes, 2 mM MgCl2, 1 mM DTT at pH 6.8 (PM12 buffer).
# Using procedures similar to those described herein, utilizing reagents and intermediates commercially available (e.g., Sigma-Aldrich,) or readily synthesized by one of skill in the art, the compounds in Table 2 were synthesized, characterized and tested. AC1.4 values were determined according to the procedure described in Example 25, and the reported median AC1.4 values are as follows: A=<1 uM; B=1-10 uM; C=10-20 uM; D=>20 uM.
row,Compound,Mean AC1.4
1,c1ccc(-c2cccc(NC3(c4ccccc4)CCC3)n2)cc1 [(6-phenyl(2-pyridyl))(phenylcyclobutyl)amine],D (D=>20 uM)
2,CC(C)(CNc1cccc(Br)n1)c1ccc(F)cc1 [(6-bromo(2-pyridyl))[2-(4-fluorophenyl)-2-methylpropyl]amine],C (C=10-20 uM)
3,"COC(=O)c1ccc(F)c(-c2cnc(NCC(C)(C)c3ncccc3Cl)nn2)c1 [methyl 3-(3-{[2-(3-chloro(2-pyridyl))-2-methylpropyl]amino}(1,2,4-triazin-6-yl))-4-fluorobenzoate]",D (D=>20 uM)
4,"NC(=O)c1cccc(-c2cnc(NC[C@]3(c4ncccc4Cl)C[C@H](F)C3)nn2)c1 [3-[3-({[1-(3-chloro(2-pyridyl))-3-fluorocyclobutyl]methyl}amino)-1,2,4-triazin-6-yl]benzamide]",A (A=<1 uM)
5,"CC(C)(Nc1ncc(-c2cc(N)ccc2F)nn1)c1ncccc1F [[6-(3-amino-6-fluorophenyl)(1,2,4-triazin-3-yl)][1-(3-fluoro(2-pyridyl))-isopropyl]amine]",B (B=1-10 uM)
6,"NC(=O)c1ccc(F)c(-c2cnc(NC3(c4ccc(F)cc4)CCC3)nn2)c1 [4-fluoro-3-(3-{[(4-fluorophenyl)cyclobutyl]amino}(1,2,4-triazin-6-yl))benzamide]",B (B=1-10 uM)
7,"CNC(=O)c1cccc(-c2cnc(NC[C@]3(c4ncccc4Cl)C[C@H](F)C3)nn2)c1 [{3-[3-({[1-(3-chloro(2-pyridyl))-3-fluorocyclobutyl]methyl}amino)(1,2,4-triazin-6-yl)]phenyl}-N-methylcarboxamide]",B (B=1-10 uM)
8,"CC(C)(Nc1ncc(-c2cc(NS(N)(=O)=O)ccc2F)nn1)c1ncccc1F [amino[4-fluoro-3-(3-{[1-(3-fluoro(2-pyridyl))-isopropyl]amino}(1,2,4-triazin-6-yl))phenyl]sulfonamide]",B (B=1-10 uM)
9,"CC(C)(Nc1ncc(-n2cc(C(N)=O)cn2)nn1)c1ncccc1Cl [1-(3-{[1-(3-chloro(2-pyridyl))-isopropyl]amino}-1,2,4-triazin-6-yl)pyrazole-4-carboxamide]",D (D=>20 uM)
10,CC(=O)NCCc1ccc(NCC(C)(C)c2ccc(F)cc2)nc1 [N-[2-(6-{[2-(4-fluorophenyl)-2-methylpropyl]amino}-3-pyridyl)ethyl]acetamide],D (D=>20 uM)
11,"CC(C)(Nc1ncc(-c2nccs2)nn1)c1ncccc1F [[1-(3-fluoro(2-pyridyl))-isopropyl](6-(1,3-thiazol-2-yl)(1,2,4-triazin-3-yl))amine]",D (D=>20 uM)
12,"CC(C)(Nc1ncc(-c2cc(C(N)=O)ccc2F)nn1)c1ncccc1F [4-fluoro-3-(3-{[1-(3-fluoro(2-pyridyl))-isopropyl]amino}(1,2,4-triazin-6-yl))benzamide]",B (B=1-10 uM)
13,"CC(C)(Nc1ncc(-c2cc(C#N)ccc2F)nn1)c1cccc(C(F)F)n1 [3-[3-({1-[6-(difluoromethyl)(2-pyridyl)]-isopropyl}amino)(1,2,4-triazin-6-yl)]-4-fluorobenzenecarbonitrile]",B (B=1-10 uM)
14,CC(C)(CNc1ccc(C#N)cn1)c1ccc(F)cc1 [6-{[2-(4-fluorophenyl)-2-methylpropyl]amino}pyridine-3-carbonitrile],C (C=10-20 uM)
15,COC(=O)NCCc1ccc(NCC(C)(C)c2ccc(F)cc2)nc1 [N-[2-(6-{[2-(4-fluorophenyl)-2-methylpropyl]amino}(3-pyridyl))ethyl]methoxycarboxamide],D (D=>20 uM)
16,"Cc1cccc(C(C)(C)Nc2ncc(-c3cc(C(N)=O)ccc3F)nn2)n1 [4-fluoro-3-(3-{[1-methyl-1-(6-methyl(2-pyridyl))ethyl]amino}(1,2,4-triazin-6-yl))benzamide]",C (C=10-20 uM)
17,CC(C)=Cc1cccc(NCC(C)(C)c2ccc(F)cc2)n1 [[2-(4-fluorophenyl)-2-methylpropyl][6-(2-methylprop-1-enyl)(2-pyridyl)]amine],D (D=>20 uM)
